Assay results as given in patent publication US20220144823A1, “PYRAZOLOPYRIDINE DERIVATIVES AS INHIBITORS OF PASK” (Galapagos NV, priority 2019, published 2022).

Experiments:
human PASK [1] = molecular target: T1, human PASK (Homo sapiens, UniProt Q96RG2); experiment: 33P radioactive kinase assay; type: biochemical; conditions: 33P radioactive PASK kinase assay, 10 μM ATP, ZIPtide 1 μM
T1 construct: purchased ThermoFisher Scientific PR7013A
Protocol: The principle of the ^33P radioactive kinase assay consists in measuring the incorporated ^33P into the ZIPtide peptide substrate when phosphorylated by human PASK using [^33P]-[…]-ATP and ATP, which correlates with kinase activity.
The test compounds are prepared as a serial dilution of 10 point dose responses with 1/5 dilution steps in 100% DMSO starting from 0.2 or 2 mM highest concentration, diluted 1/20 in water and 5 μL is transferred to the assay plates (Greiner, Cat #651201).
(§1) 1% DMSO and 10 μM staurosporine final concentrations are used respectively as negative and positive controls.
11 μL of enzyme-substrate mixture is added on the assay plates. The reactions are started by adding 9 μL ATP mixture, consisting of non-labeled and ^33P-labeled ATP, on the assay plates.
The reactions are stopped by adding 25 μL phosphoric acid (150 mM) to the reactions.
The completely terminated kinase reactions are transferred using a harvester on pre-wetted UniFilter-96 plates (UniFilter-96 GF/B, PerkinElmer Inc., Cat #6005177).
After harvesting the kinase reactions, the filter plates are washed 6 times with phosphoric acid (75 mM). The back of the UniFilter-96 plates are sealed and 40 μL MicroScint-20 (PerkinElmer Inc., Cat #6013621) is added to each well. The top of each plate is sealed with TopSeal-A (PerkinElmer Inc., Cat #6050185). Read-out is performed with a TopCount instrument (PerkinElmer Inc.).
Raw data are generated following the read-out performed on the TopCount, used to calculate percentage inhibition (PIN) values and plotted to generate dose response curves and derive the average half maximal inhibitory concentrations (IC50) reported in Table VI.

human PASK [2] = molecular target: T1, human PASK; experiment: ADP-Glo kinase assay; type: biochemical; conditions: ADPGlo PASK kinase assay, 25 μM ATP, ZIPtide 25 μM
Protocol: The ADP-Glo™ kinase assay is a luminescent technology assay which measures the ADP formed from a kinase reaction. In this specific study, the kinase reactions consisted of the phosphorylation of the ZIPtide peptide substrate by human recombinant PASK. In a second step the kinase reaction is terminated and all the remaining ATP is depleted. In a final step the ADP is converted into ATP and this newly synthesized ATP is measured by using a luciferase/luciferin reaction. The generated light is measured using an Envision plate reader, wherein the luminescent signal obtained positively correlates with the kinase activity.
The test compounds are prepared as a serial dilution of 10 point dose responses with 1/5 dilution steps in 100% DMSO starting from 2 mM highest concentration, diluted 1/20 in water and 1 μL is transferred to the assay plates (PerkinElmer Inc., Cat #6007290).
as §1
2 μL enzyme-substrate mixture is added to the assay plates.
The reaction is started by adding 2 μL diluted ATP on the assay plates immediately after addition of the enzyme-substrate mixture to the compound. Plates are centrifuged for a few seconds at 1000 rpm and gently shaken for 2 min followed by an incubation at RT for 120 min.
The reactions are stopped and the unconsumed ATP is depleted by adding 5 μL ADP-Glo Reagent (Promega, Cat #V912B) to the reaction. The plates are centrifuged for a few seconds at 1000 rpm and incubated at RT for 40 min (ATP depletion).
The ADP is converted to ATP and luciferase and luciferin is introduced to detect ATP by adding 10 μL Kinase Detection Reagent (Promega, Cat #V913B+V914B) to the reaction. The plates are centrifuged for a few seconds at 1000 rpm and incubated at RT for 30 min (ADP detection).
Luminescence is measured on an Envision plate reader (PerkinElmer Inc.).
Raw data are generated following the read-out performed on the Envision plate reader, used to calculate percentage inhibition (PIN) values and plotted to generate dose response curves and derive the average half maximal inhibitory concentrations (IC50) reported in Table VIII.

[3] = molecular target: T2, autophosphorylation of PASK at position Thr307 in Hek293 cells overexpressing PASK (Homo sapiens, UniProt Q96RG2); experiment: PASK autophosphorylation ELISA assay; type: cell-based; conditions: 24 h, ELISA readout
T2 construct: expressed in transfected cells; host or cells: Hek293
T2 sequence (Q96RG2 with tags, fused parts or gaps): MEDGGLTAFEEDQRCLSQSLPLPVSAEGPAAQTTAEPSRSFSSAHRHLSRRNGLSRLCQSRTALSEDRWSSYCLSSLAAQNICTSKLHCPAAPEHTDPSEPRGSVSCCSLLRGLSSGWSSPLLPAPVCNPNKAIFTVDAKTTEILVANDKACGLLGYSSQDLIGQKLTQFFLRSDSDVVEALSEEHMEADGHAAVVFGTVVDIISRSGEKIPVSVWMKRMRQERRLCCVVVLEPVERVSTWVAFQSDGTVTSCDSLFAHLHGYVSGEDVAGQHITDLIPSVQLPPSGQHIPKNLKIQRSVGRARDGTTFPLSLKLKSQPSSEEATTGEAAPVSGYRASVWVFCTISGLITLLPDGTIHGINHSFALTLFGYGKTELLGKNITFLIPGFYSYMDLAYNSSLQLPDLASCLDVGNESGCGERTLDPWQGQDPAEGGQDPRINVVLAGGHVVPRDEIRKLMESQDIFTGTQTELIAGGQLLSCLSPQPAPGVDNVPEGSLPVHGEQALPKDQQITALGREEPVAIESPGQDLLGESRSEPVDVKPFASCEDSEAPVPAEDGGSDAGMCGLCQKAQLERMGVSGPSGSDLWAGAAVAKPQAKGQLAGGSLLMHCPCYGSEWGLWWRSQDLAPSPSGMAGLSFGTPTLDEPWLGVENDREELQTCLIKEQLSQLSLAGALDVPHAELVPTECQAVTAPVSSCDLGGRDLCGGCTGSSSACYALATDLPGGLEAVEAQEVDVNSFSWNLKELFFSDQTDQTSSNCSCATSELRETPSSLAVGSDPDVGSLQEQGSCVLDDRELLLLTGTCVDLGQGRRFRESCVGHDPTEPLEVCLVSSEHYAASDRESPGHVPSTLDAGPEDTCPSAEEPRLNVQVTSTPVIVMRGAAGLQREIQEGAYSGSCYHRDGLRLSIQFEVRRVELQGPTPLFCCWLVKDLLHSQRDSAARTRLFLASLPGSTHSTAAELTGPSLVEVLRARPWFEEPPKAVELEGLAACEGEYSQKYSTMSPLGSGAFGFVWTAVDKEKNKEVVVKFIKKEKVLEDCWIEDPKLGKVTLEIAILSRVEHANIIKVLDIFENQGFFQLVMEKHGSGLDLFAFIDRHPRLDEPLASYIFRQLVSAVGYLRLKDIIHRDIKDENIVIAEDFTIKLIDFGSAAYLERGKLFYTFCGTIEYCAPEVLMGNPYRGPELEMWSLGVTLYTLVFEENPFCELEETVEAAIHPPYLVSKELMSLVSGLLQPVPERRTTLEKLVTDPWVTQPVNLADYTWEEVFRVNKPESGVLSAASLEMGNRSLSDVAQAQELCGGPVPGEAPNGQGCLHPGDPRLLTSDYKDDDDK
Protocol: The compounds of the invention are profiled in a cellular assay to determine their capacity to reduce the autophosphorylation levels of PASK at position Thr307 in Hek293 cells overexpressing PASK, using an ELISA-based readout.
At day 1, a 96-well cell assay plate is coated with poly-D-lysine (50 μL/well of a 0.05 mg/mL solution in PBS) and incubated for 1 h at 37° C. The plate is subsequently washed once with PBS and stored dry at RT until further use. Hek293 cells are transfected with a pcDNA3.1-PASK(FL,WT)-FLAG construct (SEQ ID1) and seeded in culture medium (DMEM+10% FBS) in a poly-D-lysine coated 96-well plate (0.3 μL JetPEI DNA transfection reagent (Polyplus-transfection SA, Cat #101-40), 10 ng construct and 90 ng pBluescript, 60000 cells per well). […] The cell plate is incubated overnight at 37° C., 5% CO2.
At day 2, the medium of the assay plate is removed and 100 μL of fresh medium (DMEM+10% FBS) is added to the plate. Cell plate is further incubated overnight at 37° C., 5% CO2. This to allow further expression of PASK protein.
At day 3, the medium is removed and replaced with 100 μL of serum free medium (DMEM). Test compound is added to the plate (8 points concentration curve with 1/3 dilution steps starting from 30 μM final concentration in 0.3% DMSO final). In the positive and negative control wells of the plate, 0.3% DMSO final is added. For each tested condition, duplicates are made for ELISA readout. Cell plate is incubated 24 h at 37° C., 5% CO2.
At day 4, the medium is removed and the plate is washed once with 100 μL/well PBS. Cells are lysed by adding 50 μL/well western blot lysis buffer (20 mM Tris pH 7.5, 150 mM NaCl and 1% Triton) to the plate. The assay plate is stored at −80° C. and thawed to perform the ELISA readout.
At day 1, the ELISA plate is coated with the mouse anti-FLAG antibody (2 μg/mL diluted in PBS, 100 μL/well) and incubated overnight at 4° C.
At day 2, the plate is washed once with 150 μL/well PBS. 200 μL/well blocking buffer (PBS with 3% BSA) is added and the plate is incubated for 4 h at RT. The plate is washed with 150 μL/well high salt washing buffer (20 mM Na2HPO4, 0.5% Triton X-100, 0.1% SDS, 0.1% BSA and 1 M NaCl) followed by one wash with 150 μL/well low salt washing buffer (20 mM Na2HPO4, 0.5% Triton X-100, 0.1% SDS, 0.1% BSA and 150 mM NaCl). Meanwhile, the cell lysate plate is thawed, two wells of the same condition are pooled (2×50 μL) and added to the ELISA plate. The ELISA plate is incubated overnight at 4° C.
At day 3, the ELISA plate is washed twice with 150 μL/well high salt washing buffer followed by two washes with low salt washing buffer. 100 μL/well detection antibody for pPASK (phospho-Akt substrate (RXXS*/T*) (110B7E) rabbit antibody (Cell Signaling Technology, Inc., Cat #9614) 2 μg/mL diluted in PBS with 3% BSA and 1×Halt™ protease and phosphatase inhibitor cocktail (Thermo Fisher Scientific, Inc., Cat #78447)) is added and incubated for 2 h at RT. The plate is washed twice with high and low salt wash buffer (150 μL/well) and 100 μL/well of an HRP antibody (swine anti-rabbit HRP antibody (Agilent Technologies, Inc., Cat #P039901) diluted 1/2000 in PBS with 3% BSA and 1×Halt™ protease and phosphatase inhibitor cocktail) is added to the plate, followed by an incubation for 1 h at RT in the dark (plate sealed with aluminum seal). The plate is washed twice with high and low salt wash buffer (150 μL/well) and 100 μL/well of SuperSignal™ ELISA Pico Chemiluminescent Substrate (Thermo Fisher Scientific, Inc., Cat #37070)(premix part 1 and part 2, 1/1) is added. The plate is incubated for 4 min at RT before measuring luminescence on the Luminoskan™ Ascent (Thermo Fisher Scientific, Inc.) (PMT default voltage; 100 ms integration time). […]

T1 sequence (Q96RG2 whole entry): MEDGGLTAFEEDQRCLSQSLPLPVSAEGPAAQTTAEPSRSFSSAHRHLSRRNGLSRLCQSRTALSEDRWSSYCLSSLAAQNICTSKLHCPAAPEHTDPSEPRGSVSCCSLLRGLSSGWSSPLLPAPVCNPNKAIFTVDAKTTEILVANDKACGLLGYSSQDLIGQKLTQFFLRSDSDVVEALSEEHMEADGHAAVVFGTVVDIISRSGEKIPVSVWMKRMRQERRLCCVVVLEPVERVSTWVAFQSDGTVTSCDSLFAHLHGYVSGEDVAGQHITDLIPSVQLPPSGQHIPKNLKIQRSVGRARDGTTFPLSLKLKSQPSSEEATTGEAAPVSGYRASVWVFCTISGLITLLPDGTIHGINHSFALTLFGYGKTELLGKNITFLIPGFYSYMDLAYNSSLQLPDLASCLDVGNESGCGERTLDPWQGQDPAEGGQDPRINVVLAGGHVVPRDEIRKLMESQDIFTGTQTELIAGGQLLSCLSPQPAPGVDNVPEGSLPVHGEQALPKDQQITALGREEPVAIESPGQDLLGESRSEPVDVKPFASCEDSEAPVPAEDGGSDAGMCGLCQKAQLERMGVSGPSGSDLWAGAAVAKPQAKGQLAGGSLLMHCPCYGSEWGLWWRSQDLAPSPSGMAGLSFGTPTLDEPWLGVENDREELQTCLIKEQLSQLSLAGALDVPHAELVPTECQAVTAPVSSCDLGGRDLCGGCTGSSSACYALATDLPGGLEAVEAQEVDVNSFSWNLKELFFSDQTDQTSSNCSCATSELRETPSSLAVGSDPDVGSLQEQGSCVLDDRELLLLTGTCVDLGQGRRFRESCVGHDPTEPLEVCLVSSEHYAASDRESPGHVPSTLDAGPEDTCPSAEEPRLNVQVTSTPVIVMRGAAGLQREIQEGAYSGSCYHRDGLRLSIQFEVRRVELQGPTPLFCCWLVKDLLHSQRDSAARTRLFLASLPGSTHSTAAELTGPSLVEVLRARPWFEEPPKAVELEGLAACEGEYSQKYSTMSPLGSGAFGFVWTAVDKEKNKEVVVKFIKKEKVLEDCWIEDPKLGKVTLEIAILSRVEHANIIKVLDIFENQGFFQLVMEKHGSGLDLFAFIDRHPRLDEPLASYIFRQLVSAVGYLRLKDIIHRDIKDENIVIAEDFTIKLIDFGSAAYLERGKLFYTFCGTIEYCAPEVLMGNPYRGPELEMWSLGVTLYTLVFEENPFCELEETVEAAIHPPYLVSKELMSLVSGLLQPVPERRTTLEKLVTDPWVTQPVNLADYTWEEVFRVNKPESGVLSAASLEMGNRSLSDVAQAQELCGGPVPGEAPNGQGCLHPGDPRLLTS

SMILES | IC50 (human PASK [1]) | IC50 (human PASK [2]) | IC50 [3]
Cc1noc(C)c1-c1cnn2ccc(-c3nc(C4CC4)c(C(=O)O)s3)cc12 [Cpd 37, 4-cyclopropyl-2-[3-(3,5-dimethylisoxazol-4-yl)pyrazolo[1,5-a]pyridin-5-yl]thiazole-5-carboxylic acid] | 0.01 to 10 nM | 0.01 to 10 nM | –
Cc1noc(C)c1-c1cnn2ccc(-c3cc(C(=O)O)c(C4CCOCC4)o3)cc12 [Cpd 44, 5-[3-(3,5-dimethylisoxazol-4-yl)pyrazolo[1,5-a]pyridin-5-yl]-2-tetrahydropyran-4-yl-furan-3-carboxylic acid] | 0.01 to 10 nM | 0.01 to 10 nM | –
Cc1nn(CC(F)(F)F)c(C)c1-c1cnn2ccc(-n3cc(C(=O)O)cn3)cc12 [Cpd 62, 1-[3-[3,5-dimethyl-1-(2,2,2-trifluoroethyl)pyrazol-4-yl]pyrazolo[1,5-a]pyridin-5-yl]pyrazole-4-carboxylic acid] | – | 0.01 to 10 nM | > 5000 nM
Cc1c(-c2cnn3ccc(-n4cc(C(=O)O)cn4)cc23)c(C(F)(F)F)nn1C [Cpd 67, 1-[3-[1,5-dimethyl-3-(trifluoromethyl)pyrazol-4-yl]pyrazolo[1,5-a]pyridin-5-yl]pyrazole-4-carboxylic acid] | – | 0.01 to 10 nM | 1000 to 5000 nM
COc1nn(-c2ccn3ncc(-c4c(C)nn(CC(F)(F)F)c4C)c3c2)cc1C(=O)O [Cpd 68, 1-[3-[3,5-dimethyl-1-(2,2,2-trifluoroethyl)pyrazol-4-yl]pyrazolo[1,5-a]pyridin-5-yl]-3-methoxy-pyrazole-4-carboxylic acid] | – | 0.01 to 10 nM | > 5000 nM
Cc1nn(C(F)F)c(C)c1-c1cnn2ccc(-n3cc(C(=O)O)cn3)cc12 [Cpd 69, 1-[3-[1-(difluoromethyl)-3,5-dimethyl-pyrazol-4-yl]pyrazolo[1,5-a]pyridin-5-yl]pyrazole-4-carboxylic acid] | – | 0.01 to 10 nM | > 5000 nM
COc1nn(-c2ccn3ncc(-c4c(C)nn(C(F)F)c4C)c3c2)cc1C(=O)O [Cpd 71, 1-[3-[1-(difluoromethyl)-3,5-dimethyl-pyrazol-4-yl]pyrazolo[1,5-a]pyridin-5-yl]-3-methoxy-pyrazole-4-carboxylic acid] | – | 0.01 to 10 nM | > 5000 nM

Second part, the molecule after the results:

IC50 (human PASK [1]) | IC50 (human PASK [2]) | IC50 [3] | SMILES
– | 0.01 to 10 nM | > 5000 nM | Cc1nn(C(F)F)c(C)c1-c1cnn2ccc(-c3ncc(C(=O)O)s3)cc12 [Cpd 50, 2-[3-[1-(difluoromethyl)-3,5-dimethyl-pyrazol-4-yl]pyrazolo[1,5-a]pyridin-5-yl]thiazole-5-carboxylic acid]
– | 0.01 to 10 nM | 0.1 to 500 nM | CCOc1nc(-c2ccn3ncc(-c4c(C)nn(CC)c4C)c3c2)sc1C(=O)O [Cpd 64, 4-ethoxy-2-[3-(1-ethyl-3,5-dimethyl-pyrazol-4-yl)pyrazolo[1,5-a]pyridin-5-yl]thiazole-5-carboxylic acid]
– | 0.01 to 10 nM | 0.1 to 500 nM | CCOc1nc(-c2ccn3ncc(-c4c(C)nn(C(C)C)c4C)c3c2)sc1C(=O)O [Cpd 65, 4-ethoxy-2-[3-(1-isopropyl-3,5-dimethyl-pyrazol-4-yl)pyrazolo[1,5-a]pyridin-5-yl]thiazole-5-carboxylic acid]
– | 0.01 to 10 nM | > 5000 nM | COc1nn(-c2ccn3ncc(-c4c(C)nn(C(C)C)c4C)c3c2)cc1C(=O)O [Cpd 66, 1-[3-(1-isopropyl-3,5-dimethyl-pyrazol-4-yl)pyrazolo[1,5-a]pyridin-5-yl]-3-methoxy-pyrazole-4-carboxylic acid]
– | 0.01 to 10 nM | 0.1 to 500 nM | CCOc1nc(-c2ccn3ncc(-c4c(C)nn(CC(F)(F)F)c4C)c3c2)sc1C(=O)O [Cpd 70, 2-[3-[3,5-dimethyl-1-(2,2,2-trifluoroethyl)pyrazol-4-yl]pyrazolo[1,5-a]pyridin-5-yl]-4-ethoxy-thiazole-5-carboxylic acid]
– | 0.01 to 10 nM | 1000 to 5000 nM | CCOc1nc(-c2ccn3ncc(-c4c(C)nn(C(F)F)c4C)c3c2)sc1C(=O)O [Cpd 72, 2-[3-[1-(difluoromethyl)-3,5-dimethyl-pyrazol-4-yl]pyrazolo[1,5-a]pyridin-5-yl]-4-ethoxy-thiazole-5-carboxylic acid]
– | 0.01 to 10 nM | > 5000 nM | COc1nc(-c2ccn3ncc(-c4c(C)nn(C(C)C)c4C)c3c2)sc1C(=O)O [Cpd 74, 2-[3-(1-isopropyl-3,5-dimethyl-pyrazol-4-yl)pyrazolo[1,5-a]pyridin-5-yl]-4-methoxy-thiazole-5-carboxylic acid]
